Patent publication US12636293B2, “Methods of treating charcot-marie-tooth disease” (CMTx Biotech Inc., priority 2019, dated 2026)

Experiments:
[1] = dose of about 10 to about 20 mg/day; cited from earlier work
[2] = tested on: Charcot Marie Tooth Disease symptoms (neuropathic pain); test: Case of a subject with Charcot Marie Tooth Disease treated with sub-antimicrobial dose doxycycline; format: in vivo, human
Experimental: The subject described the pain during the daytime hours as a 2/10 and during the evening hours as a 6/10, and experienced this pain consistently for the prior 10 years. The subject began taking a sub-antimicrobial dose of doxycycline, i.e., 20 mg twice daily (i.e. Periostat®). […] Throughout the treatment period, the subject described the pain during daytime hours as a 1/10, and during the evening hours also as a 1/10. […] Within 1 week of discontinuing twice-daily sub-antimicrobial dose doxycycline treatment, the subject experienced a return of the neuropathic pain in a sporadic manner.

Compound | plasma concentrations in humans [1] | adverse events ([2]; 20 mg twice daily for a period of 12 weeks) | time to return of neuropathic pain (sporadic) after discontinuing treatment ([2]; after 12 weeks of 20 mg twice daily) [week] | pain during daytime hours (subject's description) ([2]; person with CMTD, 20 mg twice daily, throughout the treatment period (12 weeks), before treatment 2/10) | pain during the evening hours (subject's description) ([2]; person with CMTD, 20 mg twice daily, throughout the treatment period (12 weeks), before treatment 6/10)
NC(=O)C1=C(O)C[C@@H]2C[C@@H]3Cc4cccc(O)c4C(=O)C3=C(O)[C@]2(O)C1=O [CMT-3, 6-demethyl-6-deoxy-4-dedimethylaminotetracycline] | about 1.0 μg/ml | – | – | – | –
C[C@H]1c2cccc(O)c2C(=O)C2=C(O)[C@]3(O)C(=O)C(C(N)=O)=C(O)[C@@H](N(C)C)[C@@H]3[C@@H](O)[C@@H]21 [doxycycline, 6α-deoxy-5-hydroxytetracycline] | – | no adverse events were observed | ≤ 1 | 1/10 | 1/10
